We go through three molecules from patent publication US10966423B2, “Anti-microbial agent comprising xanthohumol and the use thereof in food products” (Purac Biochem B.V., priority 2015, dated 2021).

Holding throughout (type): cell-based
Experiment [1] has as its system Leuconostoc mesenteroides. The experiment can be described thus: minimum inhibitory concentration on lactic acid bacteria, overnight in MRS medium. Conditions: strain AR049, 30° C., 10^5 cfu/ml, read-out: MIC calculated to xanthohumol. Here is the method: (§1) One part xanthohumol Xantho-Flav Extract (with 2% of xanthohumol) on diatomaceous earth is incubated with 9 parts of hot water at 100° C., boiling for <1 minute while vigorously shaking. After incubation, solid material is discarded. This way, a stock solution with 10% of Xanthoflav or about 0.2% xanthohumol (2 mg/ml) is obtained, which is used in the following examples.
(§2) For testing the anti-microbial activity a test composition comprising xanthohumol was applied. The test composition was prepared as follows. At the highest concentration 100 μl of the xanthohumol stock solution at 2 mg/ml in water (See Example 1) was added to 100 μl of 2 times concentrated MRS medium, providing a test composition comprising 1 mg/ml by weight xanthohumol in MRS medium.
(§3) Pre-cultures of test bacteria were cultured using standard techniques. Bacteria were cultured in MRS medium 48 hrs before the start of the experiments.
(§4) Five μl of the bacterium pre-cultures was brought in 200 μl of test medium (medium+component+water) and mixed with a concentration series of the test composition comprising xanthohumol. Final bacterium density at the start of the overnight experiment was 10^5 cfu/ml. Xanthohumol was tested up to a concentration of 0.01 mg/ml (based on an addition level of up to 0.05% w/w of Xanthoflav). Negative control was inoculated broth, positive control was inoculated MRS medium. Bacterium cultures were cultured overnight at 30° C., under constant shaking. After incubation, the minimum inhibitory concentration for each test organism was scored (Table 1).

For a further experiment, the system named is Lactobacilllus curvatus. The description is as above. The conditions noted are these: 10^5 cfu/ml. The procedure: as §1, §2, §3, §4
Experiment [2] concerns Lactobacillus acidophilus. The experiment is described as above. The conditions noted are these: DSM20079, strain DSM 20079, 30° C., 10^5 cfu/ml, read-out: MIC calculated to xanthohumol. Here is the method:
as §1, §2, §3, §4

A further experiment deals with Lactobacillus farciminis. Described as above. The conditions noted are these: Companilactobacillus farciminis, strain AR053, 30° C., 10^5 cfu/ml, read-out: MIC calculated to xanthohumol. The procedure:
as §1, §2, §3, §4

Experiment [3] concerns Lactobacillus plantarum. The description is as above. The conditions noted are these: Lactiplantibacillus plantarum, 10^5 cfu/ml, read-out: MIC calculated to xanthohumol. Here is the method: as §1, §2, §3, §4
The test system of another experiment is Lactobacillus brevis. The description is as above. Conditions: Levilactobacillus brevis, 10^5 cfu/ml, read-out: MIC calculated to xanthohumol. The procedure:
as §1, §2, §3, §4

In experiment [4] the test system is Penicillium roquefortii. In words: visible growth of mould hyphae in MEA broth. The conditions noted are these: MEA broth pH 3.5, 14 days, 25° C., 10^4 spores per ml; xanthohumol 0.008 wt %, propionate 0.085 wt %. The procedure:
(§5) Two molds, Aspergillus Niger and Penicillium roquefortii were tested on the combinatory effect of xanthohumol in combination with propionate. MEA broth was inoculated with spores of the fungi to a concentration of 10^4 spores per ml. In this example use has been made of the stock solution of xanthohumol as has been described in example 1 above. 4 ml of said stock solution was added to 96 ml of broth to obtain a 0.008% w/w solution in broth.
(§6) Propionate was added to an end concentration of 0.085% of propionate in broth. Also a solution was made with 0.008% w/w of xanthohumol and 0.085% of propionate in broth. As a control experiment broth without antimicrobial components was used. The pH of all media was set to 3.5. After 14 days of incubation at 25° C., the broth was inspected for visible growth of mould hyphae.

The next experiment deals with Aspergillus Niger. The experiment can be described thus: visible growth of mould hyphae in MEA broth. The conditions noted are these: MEA broth pH 3.5, 14 days, 25° C., 10^4 spores per ml; xanthohumol 0.008 wt %, propionate 0.085 wt %. The procedure:
as §5, §6

A further experiment deals with Fusarium oxysporum. The experiment can be described thus: mold outgrowth (OD) in semi-solid MEA agar, xanthohumol/calcium propionate gradient. Conditions: FIG. 2; day 13, pH 6; calcium propionate 0-0.5%, xanthohumol 0-0.00195%. Here is the method: (§7) Five molds, Penicillium roquefortii, Aspergillus flavus, Fusarium oxysporum, Paecilomyces variotii, and Mucor plumbeus, were tested on the combinatory effect of xanthohumol combined with calcium propionate. In this example use has been made of a stock solution of 0.52% w/w XanthoFlav (equivalent to 0.0104% w/w xanthohumol) prepared in a similar manner as that described in example 1 above, as well as a stock solution of calcium propionate at 1.6% w/w. A modified semi-solid MEA agar was prepared by mixing 50 g of Malt Extract broth (Oxoid) with 7.5 g of Bacteriological Agar No. 1 (Oxoid) to create a 2× reduced agar MEA. This was autoclaved at 120° C. for 15 minutes. Bottles of this MEA were held at 50° C. until ready for inoculation, at which point they were inoculated with a single strain of the above listed molds at approximately 10^4 spores per ml. This level of inoculation ensures 500-1000 spores per well in the 96 well plate. All media was set to pH 6.
(§8) The 2×MEA was mixed with the stock solutions of xanthohumol, calcium propionate, and sterilized H2O as a diluent in 96 well plates using an automated plate filler to create a concentration gradient of calcium propionate ranging from 0% to 0.5% along one axis and xanthohumol from 0% to 0.00195% along the other axis. Wells containing 0% of both antimicrobials served as a control. This allowed for testing approximately 24 different combinations of the two antimicrobials on one plate. Each well contained 75 μL of inoculated 2× reduced agar MEA, 75 μL of a mix of antimicrobials/diluent, and was capped with 75 μL of paraffin oil after the agar had set. Ninety-six well plates were then sealed with an oxygen permeable membrane to prevent contamination of wells.
(§9) OD measurements were taken approximately once a day, and outgrowth (measured by an increase in OD) was tracked over time. Measurements at the final reading (day 13) were placed in a 3D graph to visualize the additive effects of the two antimicrobials as levels of each increased across the plate.

The next experiment relates to Mucor plumbeus. The experiment is described as above. Conditions: FIG. 5; day 13, pH 6; calcium propionate 0-0.5%, xanthohumol 0-0.00195%. Here is the method: as §7, §8, §9
In experiment [5] the test system is Penicillium roquefortii. The description is as above. The conditions noted are these: FIG. 1; day 13, pH 6; calcium propionate 0-0.5%, xanthohumol 0-0.00195%. Here is the method:
as §7, §8, §9

Another experiment relates to Aspergillus flavus. Described as above. The conditions noted are these: FIG. 4; day 13, pH 6; calcium propionate 0-0.5%, xanthohumol 0-0.00195%. Here is the method:
as §7, §8, §9

Another experiment relates to Paecilomyces variotii. The experiment is described as above. Conditions: FIG. 3; day 13, pH 6; calcium propionate 0-0.5%, xanthohumol 0-0.00195%. Here is the method: as §7, §8, §9
In experiment [6] the test system is Lactobacillus plantarum. In words: growth of Lactobacillus plantarum in food products (baby food, pasta sauce). Conditions: for Lactobacillus plantarum cell density: xanthohumol 0.004 mg/ml. The procedure:
In this example, the influence of xanthohumol on growth of Lactobacillus plantarum in baby food and in pasta sauce was assessed. For this purpose the baby food was sterilized and the pH was adjusted at pH 4.8, and the pasta sauce was sterilized and the pH was adjusted to pH 4.2. At time-point t=0, three samples of both the baby food and the pasta sauce were inoculated with a Lactobacillus plantarum starter culture, at a final Lactobacillus cell density of approximately 1*10^4 cells/ml. For the baby food and the pasta sauce, one sample each was inoculated in the presence of 0.2% by weight xanthohumol composition to a final concentration of xanthohumol in the food product of 0.004 mg/ml. Lactobacillus plantarum cell density was determined in the food products at t=0 and at t=24 hours.

Experiment [7] concerns lactic acid bacteria (L. curvatus, 3×L. plantarum and L. mesenteroides). In words: shelf life of sausages inoculated with lactic acid bacteria. Here is the method:
Sausages were produced according to the following procedure. The ingredients defined as weight percentages in Table 5 were used for the preparation of the sausage. Xanthoflav was used as such, without a preparation step such as applied in Example 1.
First the meat was shredded, and salt, tri polyphosphate and half of the water was added. After mixing very well, the other ingredients were added. The meat dough was put in a cook crimp bag and vacuum sealed. After sealing the bags were canned. The sausages were cooked in a cooking cabinet for 120 minutes at 75° C. and afterwards cooled down to 15° C. […]
In a first step an inoculum was prepared as follows. Cultures of lactic acid bacteria (L. curvatus, 3×L. plantarum and L. mesenteroides) are started from plate and incubated overnight at 30° C. in screw-capped tubes (100×16 mm) containing 10 ml MRS broth.
Sausages were inoculated to a final level of about 1000 (10^3) CFU per g product. The sausage was inoculated with 1% Inoculum (approximately 5 ml Inoculum per 500 gram ground meat). […]
Fifty μl of the homogenate or dilution was subsequently plated on MRS agar using an Eddyjet type 1.23 spiral plater (IUL Instruments, Barcelona, Spain). […] The colonies were counted with the Acolyte Supercount automatic colony counter (Synoptics, Cambridge, UK) using the Synoptics software package. […]

Converted amounts (≈) assume the structure as drawn. Where two headings read alike, the source gives them in different places.

By MIC is commonly meant the least concentration at which growth counts as inhibited. As for `COc1cc(O)c(CC=C(C)C)c(O)c1C(=O)/C=C/c1ccc(O)cc1` [xanthohumol], the minimum inhibitory concentration (MIC) in experiment [1] is 2 µg/mL (≈ 5.64 µM); with Lactobacilllus curvatus (strain Zand 2, 30° C., read-out: MIC calculated to xanthohumol), 10 µg/mL (≈ 28.2 µM); in experiment [2], 10 µg/mL (≈ 28.2 µM); in the experiment with Lactobacillus farciminis, 4 µg/mL (≈ 11.3 µM); with Lactobacillus plantarum [3] (DSM20174, strain DSM 20174, 30° C.), 4 µg/mL (≈ 11.3 µM); in the experiment with Lactobacillus plantarum [3] (strain AR052, 30° C.), 2 µg/mL (≈ 5.64 µM). Moreover, the minimum inhibitory concentration (MIC) was 2 µg/mL (≈ 5.64 µM) in the experiment with Lactobacillus brevis (LMG6906, strain LMG 6906, 30° C.) and 2 µg/mL (≈ 5.64 µM) in the experiment on Lactobacillus brevis (strain AR043, 30° C.). The “MIC calculated to xanthohumol” value in the experiment with Lactobacilllus curvatus (strain AR095, 30° C.) is 10 µg/mL (≈ 28.2 µM). Also, the “visible growth of mould hyphae” value in the experiment on Penicillium roquefortii [4] and with Aspergillus Niger was “Growth” throughout. Further, in the experiment on Fusarium oxysporum, the “Inhibition of F. oxysporum (outgrowth by OD)” value is on record as “inhibiting effect by itself”. The “Inhibition of M plumbeus (outgrowth by OD)” value in the experiment on Mucor plumbeus is “inhibiting effect by itself”. For the same molecule, the “Inhibition of P. roquefortii (outgrowth by OD)” value with Penicillium roquefortii [5] was “inhibiting effect by itself”. In the experiment with Aspergillus flavus, the “Inhibition of A. flavus (outgrowth by OD)” value is on record as “inhibiting effect by itself”. For the same molecule, the “Inhibition of P. variotii (outgrowth by OD)” value in the experiment on Paecilomyces variotii is given as “inhibiting effect by itself”. For the same molecule, the “Lactobacillus plantarum cell density” value in the experiment on Lactobacillus plantarum [6] (baby food pH 4.8, 0 h) was 3.8 × 10^4; with Lactobacillus plantarum [6] (baby food pH 4.8, 24 h, control 3 × 10^7), 3 × 10^4; with Lactobacillus plantarum [6] (pasta sauce pH 4.2, 0 h), 3 × 10^4; in the experiment with Lactobacillus plantarum [6] (pasta sauce pH 4.2, 24 h, control 6 × 10^5), below 100. In addition, in the experiment on Lactobacillus plantarum [6] (in baby food and pasta sauce), the “inhibitory effect on Lactobacillus plantarum” value is recorded as “strong inhibitory effect”.

With `CCC(=O)O` [propionate, reference compound], the “visible growth of mould hyphae” value with Penicillium roquefortii [4] and with Aspergillus Niger was “Growth” each time.

In the case of `C[C@@H]1OC(=O)[C@H](C)OC1=O` [Nr 3: 0.8% Lactide, Lactide], the “Shelf life of sausages, Days till 10^7 cfu/g” value in experiment [7] (inoculated about 10^3 CFU per g, vacuum sealed, stored at 7° C., control 8.0) was 12.5 Days. Further, the “shelf life improvement as compared to the control” value in experiment [7] (sausages stored at 7° C.) is on record as “about 4 days”.
